# Results reported in ChEMBL document CHEMBL1150471, “Tritylated oncolytics as prodrugs” (Bioorg Med Chem Lett, 1995).
# Active and inactive are the calls of the source. The calls are words filed in the database; no cut-off is given here.
# What was measured:
# [1] = Half life at pH 5.4; format: ADME; conditions: buffer
# [2] = system: CCRF-CEM; experiment: In vitro cytotoxicity against human leukemia cell line CCRF-CEM; format: functional, cell-based
# [3] = Half life at pH 6.4; format: ADME; conditions: buffer
# [4] = Half life at pH 7.4; format: ADME; conditions: buffer
# [5] = system: Homo sapiens; experiment: In vivo tumor inhibition against human colon (HC-1) xenograft after i.p. administration to C3H nude mice on days 7; format: functional; design: concentration or dose not given beside the values
# [6] = system: Homo sapiens; experiment: In vivo tumor inhibition against human colon (HC-1) xenograft after i.p. administration to C3H nude mice on day 1; format: functional; design: concentration or dose not given beside the values
# [7] = system: Homo sapiens; experiment: In vivo tumor inhibition against human colon (HC-1) xenograft after i.p. administration to C3H nude mice on days 4; format: functional; design: concentration or dose not given beside the values
# [8] = system: Homo sapiens; experiment: In vivo tumor inhibition against human colon (HC-1) xenograft after i.p. administration to C3H nude mice on days 10; format: functional; design: concentration or dose not given beside the values
# [9] = system: Homo sapiens; experiment: Effective dose for the dose dependent inhibition of tumor growth against human colon (HC-1) xenograft in mice; Inactive; format: functional, organism-based
# [10] = Half life at pH 5.4; no dissociation up to day 33; format: ADME; conditions: buffer
# [11] = Half life at pH 7.4; no dissociation up to day 33; format: ADME; conditions: buffer
# [12] = Half life at pH 6.4; no dissociation up to day 33; format: ADME; conditions: buffer
# [13] = system: Homo sapiens; experiment: In vivo inhibition against human colon (HC-1) xenograft at a dose of 37.5 mg/kg; format: functional
# [14] = system: Homo sapiens; experiment: In vivo inhibition against human colon (HC-1) xenograft at a dose of 50 mg/kg; format: functional
# [15] = system: Homo sapiens; experiment: In vivo inhibition against human colon (HC-1) xenograft at a dose of 20 mg/kg; format: functional
# [16] = system: Homo sapiens; experiment: In vivo inhibition against human colon (HC-1) xenograft at a dose of 75 mg/kg; format: functional
# [17] = system: Homo sapiens; experiment: Effective dose for the dose dependent inhibition of tumor growth against human colon (HC-1) xenograft in mice; format: functional
half-life [1],half-life [3],half-life [4],T1/2 [10],T1/2 [11],T1/2 [12],Compound,IC50 [2],Inhibition [5],Inhibition [6],Inhibition [7],Inhibition [8],ED50 [9],inhibition in vivo at 37.5 mg/kg [13],inhibition in vivo at 50 mg/kg [14],inhibition in vivo at 20 mg/kg [15],inhibition in vivo at 75 mg/kg [16],ED50 [17]
16.7 h,547 h,800 h,–,–,–,COc1ccc(C(Nc2nc(N)nc3c2ncn3[C@@H]2O[C@H](CO)[C@@H](O)C2(F)F)(c2ccccc2)c2ccc(C(=O)NC(C)C)cc2)cc1 (stereo not given in full),0.1 µg/mL,>95%,>95%,>95%,>95%,–,–,–,–,–,–
–,–,–,no dissociation up to day 33,no dissociation up to day 33,no dissociation up to day 33,CC(C)NC(=O)c1ccc(C(Nc2nc(N)nc3c2ncn3[C@@H]2O[C@H](CO)[C@@H](O)C2(F)F)(c2ccccc2)c2ccccc2)cc1,1.7 µg/mL,>95%,>95%,>95%,>95%,inactive,–,–,–,–,–
–,–,–,–,–,–,COc1ccc(C(Nc2nc(N)nc3c2ncn3[C@@H]2O[C@H](CO)[C@@H](O)C2(F)F)(c2ccc(C)cc2)c2ccc(C(=O)NC(C)C)cc2)cc1 (stereo not given in full),0.1 µg/mL,>95%,>95%,>95%,>95%,–,–,–,–,–,–
2.35 h,23.3 h,133 h,–,–,–,COc1ccc(C(Nc2nc(N)nc3c2ncn3[C@@H]2O[C@H](CO)[C@@H](O)C2(F)F)(c2ccc(OC)cc2)c2cccc(C(=O)NC(C)C)c2)cc1,0.084 µg/mL,–,–,–,–,–,–,–,–,–,–
3.71 h,14.8 h,146 h,–,–,–,COc1ccc(C(Nc2nc(N)nc3c2ncn3[C@@H]2O[C@H](CO)[C@@H](O)C2(F)F)(c2ccc(OC)cc2)c2ccc(C(=O)NC(C)C)cc2)cc1,0.078 µg/mL,>95%,>95%,>95%,>95%,–,–,–,–,–,–
–,–,–,–,–,–,Nc1nc(N)c2ncn([C@@H]3O[C@H](CO)[C@@H](O)C3(F)F)c2n1,0.024 µg/mL,–,–,–,–,–,> 95%,> 95%,> 95%,> 95%,–
–,–,–,–,–,–,Cc1ccc(C(Nc2nc(N)nc3c2ncn3[C@@H]2O[C@H](CO)[C@@H](O)C2(F)F)(c2ccccc2)c2ccc(C(=O)NC(C)C)cc2)cc1 (stereo not given in full),0.8 µg/mL,>95%,>95%,>95%,>95%,–,–,–,–,–,30 mg/kg
